The record followed here is ChEMBL document CHEMBL1201862, “PubChem BioAssay data set” (2004).

Test systems include CCRF-CEM; COLO 205; HCC 2998; HL-60; HOP-62; K562; KM12; LOX IMVI; MDA-MB-231; MOLT-4; NCI/ADR-RES; OVCAR-5; RXF 393; SF-268; SK-OV-3; SN12C; SW-620; TK-10; UO-31; SR.
Assay in all cases: DTP human tumour cell line panel, 48 h

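Results reflect a 48-hour exposure of cells in 96-well plates to compound at five concentrations. GI50 marks 50% less growth.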 Calls of active or inactive are those of the source. Cut-off read from the data, not from the text of the source: active = GI50 up to about 1.1 µM and inactive = higher.

Regarding `CCCCn1cnc2c(c(CC#N)nn2-c2ccccc2)c1=N`, the GI50 in the assay with CCRF-CEM is 47.6 µM (inactive); in the assay with COLO 205 it was 30.7 µM (inactive); in the assay on HCC 2998 it was 37.1 µM (inactive); with HL-60 it was 34 µM (inactive); with HOP-62 it was > 100 µM (inactive); with K562, 34 µM (inactive). Besides, the GI50 in the assay on KM12 was 43 µM (inactive); with LOX IMVI, 39.3 µM (inactive); in the assay with MDA-MB-231 it was 43.1 µM (inactive); with MOLT-4, 33.1 µM (inactive); in the assay on NCI/ADR-RES, 41.2 µM (inactive); in the assay with OVCAR-5 it was > 100 µM (inactive). In addition, the GI50 was 70.1 µM (inactive) in the assay on RXF 393; 71.1 µM (inactive) with SF-268; > 100 µM (inactive) with SK-OV-3; 70.8 µM (inactive) in the assay with SN12C; 41.9 µM (inactive) in the assay with SW-620; 64.7 µM (inactive) with TK-10. The GI50 in the assay on UO-31 was 60.4 µM (inactive).

`CCOC(=O)NC(NCC(O)c1ccccc1)(C(F)(F)F)C(F)(F)F` (stereo not given): the GI50 with CCRF-CEM, with HCC 2998, in the assay on HL-60, in the assay with HOP-62, with K562 and in the assay with KM12 was > 100 µM (inactive) in each case. Also, the GI50 in the assay with LOX IMVI is > 100 µM (inactive); with MDA-MB-231, > 100 µM (inactive); in the assay on MOLT-4 it was > 100 µM (inactive); with OVCAR-5, > 100 µM (inactive); in the assay on RXF 393, 43.4 µM (inactive); in the assay on SF-268, > 100 µM (inactive). For the same compound, the GI50 in the assay on SK-OV-3, with SN12C, with SR, with SW-620, with TK-10 and with UO-31 was > 100 µM (inactive) throughout.

Regarding `Cc1cn2c(/C=N/NC(=N)N)c(-c3ccc([N+](=O)[O-])cc3)nc2s1`, the GI50 with CCRF-CEM was 0.194 µM (active); in the assay with COLO 205, 0.685 µM (active); with HL-60, 1.53 µM (inactive); in the assay on HOP-62 it was 1.29 µM (inactive); with KM12 it was 0.401 µM (active); in the assay with LOX IMVI, 0.352 µM (active). Besides, the concentration for 50% growth inhibition (GI50) in the assay with MDA-MB-231 was 0.385 µM (active); with NCI/ADR-RES it was 4.04 µM (inactive); with OVCAR-5, 0.785 µM (active); in the assay with RXF 393, 0.914 µM (active); in the assay with SF-268, 1.64 µM (inactive); with SK-OV-3, 1.76 µM (inactive). In addition, the GI50 was 1.46 µM (inactive) with SN12C, 0.175 µM (active) in the assay on SW-620, 1.57 µM (inactive) in the assay on TK-10 and 1.95 µM (inactive) in the assay with UO-31.

With `CCc1ccccc1NC(=O)/C=C/c1ccccc1`, the GI50 in the assay on CCRF-CEM was > 100 µM (inactive); in the assay with COLO 205, > 100 µM (inactive); in the assay with HCC 2998, > 100 µM (inactive); in the assay with HOP-62, 49 µM (inactive); in the assay with K562 it was > 100 µM (inactive); in the assay with KM12, > 100 µM (inactive). In addition, the GI50 in the assay on LOX IMVI, with MDA-MB-231, in the assay with MOLT-4, in the assay with OVCAR-5, in the assay on SF-268 and in the assay on SK-OV-3 was > 100 µM (inactive) in each case. The GI50 in the assay on SN12C, with SR, with SW-620 and in the assay on TK-10 was > 100 µM (inactive) each time.

For the compound `COC(=O)/C=C/c1cc2c(cc1-c1c(C(=O)O)cc(OC)c(OC)c1OC)OCO2`, the GI50 with CCRF-CEM, in the assay on COLO 205, with HCC 2998, in the assay with HL-60, with HOP-62 and with K562 was > 10 µM (inactive) throughout. In addition, the GI50 in the assay with KM12, with LOX IMVI, in the assay with MDA-MB-231, with MOLT-4, in the assay on NCI/ADR-RES and in the assay with SF-268 was > 10 µM (inactive) each time. Besides, the GI50 in the assay with SK-OV-3, in the assay on SN12C, with SR, in the assay on SW-620 and in the assay with TK-10 was > 10 µM (inactive) each time.

As to `Cc1cc(C)c2cc(N)c(Cl)nc2n1`, the GI50 in the assay with CCRF-CEM, in the assay on COLO 205, with HL-60, in the assay with KM12, in the assay with MDA-MB-231 and in the assay on NCI/ADR-RES was > 100 µM (inactive) throughout. For the same compound, the GI50 in the assay with OVCAR-5, with RXF 393, in the assay on SF-268, in the assay with SK-OV-3, in the assay with SN12C and in the assay with SW-620 was > 100 µM (inactive) in each case. Moreover, the figures for the GI50 in the assay on TK-10 and in the assay with UO-31 were > 100 µM (inactive) and 63.4 µM (inactive), respectively.

With `CC(C)(C)[Si](C)(C)OCCCCC1CC2(S(=O)(=O)C3=CC=C=C=C3)ON1CC2S(=O)(=O)c1ccccc1` (stereo not given), the GI50 in the assay with COLO 205, in the assay with HCC 2998, in the assay on HOP-62, in the assay with K562, in the assay on KM12 and in the assay with MDA-MB-231 was > 100 µM (inactive) in each case. Also, the GI50 in the assay on MOLT-4, in the assay on NCI/ADR-RES, in the assay on OVCAR-5, in the assay on RXF 393, in the assay with SF-268 and in the assay on SK-OV-3 was > 100 µM (inactive) in each case. In addition, the GI50 in the assay on SN12C, with SW-620, in the assay with TK-10 and with UO-31 was > 100 µM (inactive) throughout.

`CC(C)CCCC(=O)CCCCCCC(=O)CCN(O)C(=O)C(N)CO` (stereo not given): the GI50 in the assay with CCRF-CEM was 4.62 µM (inactive); in the assay with COLO 205 it was 23.7 µM (inactive); in the assay with HL-60 it was 20 µM (inactive); with HOP-62 it was 21.2 µM (inactive); with K562, 28.3 µM (inactive); in the assay with KM12 it was 17.6 µM (inactive). The GI50 was 12.2 µM (inactive) in the assay on LOX IMVI; 16.2 µM (inactive) in the assay with MDA-MB-231; 41.7 µM (inactive) in the assay on MOLT-4; 16.1 µM (inactive) in the assay on NCI/ADR-RES; 19.8 µM (inactive) in the assay on OVCAR-5; 11 µM (inactive) in the assay with RXF 393. Further, the GI50 is 26.2 µM (inactive) in the assay with SF-268; 19.1 µM (inactive) with SK-OV-3; 16.9 µM (inactive) in the assay with SN12C; 30.3 µM (inactive) in the assay on SW-620; 14.7 µM (inactive) in the assay on TK-10; 12.2 µM (inactive) in the assay on UO-31.

Take `Cn1c(=S)[nH]c2sc3c(c2c1=O)CCSC3`: the GI50 in the assay on COLO 205 is 47.1 µM (inactive); with HCC 2998, 21.8 µM (inactive); in the assay with HL-60, 16.7 µM (inactive); in the assay with HOP-62, 25.9 µM (inactive); with K562, 42.9 µM (inactive); in the assay with KM12, 32.1 µM (inactive). The GI50 in the assay with LOX IMVI was 36.6 µM (inactive); in the assay with MDA-MB-231, > 100 µM (inactive); in the assay on MOLT-4, 33.8 µM (inactive); in the assay on NCI/ADR-RES it was 31.3 µM (inactive); with OVCAR-5 it was 53.7 µM (inactive); in the assay with RXF 393, 3.05 µM (inactive). The GI50 is 26.2 µM (inactive) with SF-268; 90.8 µM (inactive) in the assay with SK-OV-3; 40 µM (inactive) in the assay on SN12C; 35.7 µM (inactive) in the assay with SW-620; 80.5 µM (inactive) in the assay with TK-10; 11.7 µM (inactive) in the assay with UO-31.

As for `CCOC(=O)c1c(SCc2cc(=O)[nH]c(=O)[nH]2)n(-c2ccccc2)c(=S)n(-c2ccccc2)c1=O`, the GI50 in the assay on CCRF-CEM, with COLO 205, with HCC 2998, with HOP-62, with K562 and in the assay on KM12 was > 100 µM (inactive) in each case. Besides, the GI50 in the assay on MDA-MB-231, with MOLT-4, with NCI/ADR-RES, with OVCAR-5, in the assay with RXF 393 and in the assay on SF-268 was > 100 µM (inactive) throughout. The GI50 is > 10 µM (inactive) with SK-OV-3; > 100 µM (inactive) in the assay on SN12C; > 100 µM (inactive) in the assay on SW-620; > 100 µM (inactive) with TK-10; > 100 µM (inactive) with UO-31.

Consider `O=C1N/C(=N\C2CCCCC2)C2(CCN(CCCC3(c4ccc(F)cc4)OCCO3)CC2)N1c1ccccc1`, for which the GI50 is 29 µM (inactive) in the assay with CCRF-CEM; 18.5 µM (inactive) with COLO 205; 11.7 µM (inactive) in the assay with HL-60; 17.5 µM (inactive) in the assay with HOP-62; 18 µM (inactive) in the assay with KM12; 22.8 µM (inactive) with LOX IMVI. Moreover, the GI50 was 15.1 µM (inactive) with MOLT-4; 24.3 µM (inactive) in the assay on NCI/ADR-RES; 16.7 µM (inactive) with OVCAR-5; 17.3 µM (inactive) in the assay with RXF 393; 21.5 µM (inactive) in the assay with SF-268; 21 µM (inactive) with SK-OV-3. Besides, the GI50 is 20.4 µM (inactive) with SN12C; 13.9 µM (inactive) with SR; 21.2 µM (inactive) in the assay with SW-620; 15.7 µM (inactive) in the assay on TK-10; 12.6 µM (inactive) in the assay on UO-31.

As for `c1ccc(N2N=C3N(c4ccccc4)C2N3c2ccccc2)cc1`, the GI50 in the assay on CCRF-CEM was 20.7 µM (inactive); in the assay on COLO 205, 19.5 µM (inactive); in the assay with HCC 2998 it was 27.6 µM (inactive); in the assay with HL-60, 38.5 µM (inactive); in the assay with HOP-62, 58.2 µM (inactive); in the assay with K562, 14.7 µM (inactive). In addition, the GI50 was 33.7 µM (inactive) with KM12; 21.1 µM (inactive) with LOX IMVI; 57.3 µM (inactive) with MDA-MB-231; 16.5 µM (inactive) in the assay with MOLT-4; > 100 µM (inactive) with NCI/ADR-RES; 71.9 µM (inactive) with OVCAR-5. Moreover, the GI50 in the assay on RXF 393 was 45.3 µM (inactive); in the assay on SF-268 it was 52.8 µM (inactive); with SK-OV-3, > 100 µM (inactive); in the assay on SN12C, 48 µM (inactive); with SW-620 it was 33.4 µM (inactive); in the assay on TK-10, 71.3 µM (inactive). The GI50 with UO-31 is 58.9 µM (inactive).
